Legend:
Tie2 [1] = biological target: T1, Tie2 (Homo sapiens, UniProt Q02763); experiment: Tie2 ELISA assay (cellular Tie2 autophosphorylation); type: cell-based; design: expressed in transfected cells; host or cells: CHO (CHO Tie2/DHFR); conditions: CHO cells stably transfected with Tie2, stimulated by angiopoietin-2; Tie2 autophosphorylation by sandwich-ELISA; read-out: Tie 2 activity (assay 1)
Target sequence in this assay (Q02763 23-1124, species assumed): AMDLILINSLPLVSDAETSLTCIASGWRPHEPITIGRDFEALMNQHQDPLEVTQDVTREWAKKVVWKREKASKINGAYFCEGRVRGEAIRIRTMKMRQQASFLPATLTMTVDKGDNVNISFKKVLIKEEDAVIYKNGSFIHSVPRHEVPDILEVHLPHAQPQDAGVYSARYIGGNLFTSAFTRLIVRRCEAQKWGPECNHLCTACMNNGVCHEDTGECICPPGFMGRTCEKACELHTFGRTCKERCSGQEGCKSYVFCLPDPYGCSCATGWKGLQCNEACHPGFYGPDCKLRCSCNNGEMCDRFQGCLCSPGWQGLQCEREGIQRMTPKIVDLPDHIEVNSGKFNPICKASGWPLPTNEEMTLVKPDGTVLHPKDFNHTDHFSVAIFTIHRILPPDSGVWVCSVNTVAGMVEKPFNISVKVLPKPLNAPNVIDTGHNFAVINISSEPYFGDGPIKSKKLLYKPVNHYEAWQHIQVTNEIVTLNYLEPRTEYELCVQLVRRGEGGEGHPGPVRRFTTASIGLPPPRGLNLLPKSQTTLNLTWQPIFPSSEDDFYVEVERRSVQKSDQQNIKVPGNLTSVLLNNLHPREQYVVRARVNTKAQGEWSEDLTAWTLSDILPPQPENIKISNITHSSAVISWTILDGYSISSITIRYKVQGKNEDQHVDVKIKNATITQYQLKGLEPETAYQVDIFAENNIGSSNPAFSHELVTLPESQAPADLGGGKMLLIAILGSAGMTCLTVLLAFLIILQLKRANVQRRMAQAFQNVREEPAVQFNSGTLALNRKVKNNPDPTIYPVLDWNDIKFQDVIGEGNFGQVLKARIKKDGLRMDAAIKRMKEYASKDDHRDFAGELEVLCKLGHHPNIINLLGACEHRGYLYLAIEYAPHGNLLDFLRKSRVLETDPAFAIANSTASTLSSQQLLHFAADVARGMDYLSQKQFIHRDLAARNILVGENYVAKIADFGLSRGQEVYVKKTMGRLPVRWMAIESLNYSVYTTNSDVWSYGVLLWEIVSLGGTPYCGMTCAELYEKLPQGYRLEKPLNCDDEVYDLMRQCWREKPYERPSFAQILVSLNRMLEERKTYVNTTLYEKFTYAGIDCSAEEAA

Tie2 [2] = biological target: T1, Tie2; experiment: Tie-2-Kinase HTRF-Assay without kinase preactivation; type: biochemical; design: fusion protein of GST and the intracellular domains of Tie-2; GST; made in house; host or cells: insect cells (Hi-5); conditions: GST-Tie-2 intracellular domains, 10 μM ATP
How it was run: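 GST fusion of the Tie-2 intracellular domains from insect cells, not preactivated, run 60 min at 22 °C with 10 μM ATP and 1 μM biotinylated peptide, HEPES pH 7 with MgCl2/MnCl2, 1% DMSO; compounds 0.001-20 μM. EDTA stop, HTRF 665/620 nm ratio; IC50 by 4-parameter fit.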
Target sequence in this assay (Q02763 770-1124 limits assumed, species assumed): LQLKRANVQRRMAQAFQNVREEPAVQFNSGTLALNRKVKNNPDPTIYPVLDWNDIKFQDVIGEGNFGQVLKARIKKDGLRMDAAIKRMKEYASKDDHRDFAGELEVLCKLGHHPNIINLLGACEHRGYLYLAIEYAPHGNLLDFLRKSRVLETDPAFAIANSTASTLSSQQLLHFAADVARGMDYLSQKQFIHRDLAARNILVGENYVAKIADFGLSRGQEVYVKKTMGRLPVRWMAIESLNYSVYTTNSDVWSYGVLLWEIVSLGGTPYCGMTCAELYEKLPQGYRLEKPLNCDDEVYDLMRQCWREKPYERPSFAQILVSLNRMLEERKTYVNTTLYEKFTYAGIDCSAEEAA

IC50 (Tie2 [1]) | IC50 (Tie2 [2]) | SMILES
< 501 nM | < 501 nM | CN(C)c1ccc(C(F)(F)F)cc1NC(=O)Nc1ccc(-c2cncc3c2cnn3C)cc1 [Example 13.11, 1-(2-Dimethylamino-5-trifluoromethyl-phenyl)-3-[4-(1-methyl-1H-pyrazolo[3,4-c]pyridin-4-yl)-phenyl]-urea]
< 501 nM | < 501 nM | CCc1cccc(NC(=O)Nc2ccc(-c3cncc4c3cnn4C)cc2)c1 [Example 1.5, 1-(3-Ethyl-phenyl)-3-[4-(1-methyl-1H-pyrazolo[3,4-c]pyridin-4-yl)-phenyl]-urea]
